Each structure is given as a SMILES string.

For data set [1], the system named is yellow nutsedge (Cyperus esculentus). The experiment in a line: Test Example 1: foliar spray herbicide effect on yellow nutsedge in greenhouse pots. Type of data set: in vivo. To be noted: evaluated 25 days after treatment, level 0-10. On the procedure:
(§1) Evaluation of phytotoxicity against a crop was shown by “no” when almost no phytotoxicity was observed, “low” when a low level phytotoxicity was observed, “medium” when a medium level phytotoxicity was observed and “high” when a high level phytotoxicity was observed.
(§2) A plastic pot of 11 cm in diameter and 8 cm in depth was filled with field soil. A tuber of yellow nutsedge (Cyperus esculentus) was planted and grown in a greenhouse for 21 days.
(§3) An emulsion of Compound A-1 was prepared by sufficiently mixing 5 parts of Compound A-1, 6 parts of Sorpol 3005× (surfactant, produced by Toho Chemical) and 89 parts of xylene.
Each of • single use of an emulsion of Compound A-1, • single use of an formulation of Imazethapyr (commercial name: Pursuit, produced by American Cyanamid, containing 24% of imazethapyr), • single use of an formulation of Imazamox (commercial name: Raptur, produced by American Cyanamid, containing 12.1% of imazamox), • a mixed composition of an emulsion of Compound A-1 and an formulation of Imazethapyr, and • a mixed composition of an emulsion of Compound A-1 and an formulation of Imazamox, were diluted with water containing 1% Agri-dex (produced by Helena). Respective dilutions were uniformly sprayed from upper side onto foliages of yellow nutsedge grown as described above with a small sprayer such that the amounts of the active ingredients were the amounts shown in Table 4. Immediately after the treatment with the test compounds, seeds of soybean were sown.
(§4) After the treatment, they were raised in a greenhouse for 25 days and the effect against weeds was evaluated. In addition, after 14 days of the treatment, the phytotoxicity to soybean was evaluated.

For a further data set, the system named is soybean. The experiment in a line: Test Example 1: phytotoxicity to soybean sown immediately after treatment. Type of data set: in vivo. The note with it: evaluated after 14 days. As for the experimental part: as §1, §2, §3
Each of • single use of an emulsion of Compound A-1, • single use of an formulation of Imazethapyr (commercial name: Pursuit, produced by American Cyanamid, containing 24% of imazethapyr), • single use of an formulation of Imazamox (commercial name: Raptur, produced by American Cyanamid, containing 12.1% of imazamox), • a mixed composition of an emulsion of Compound A-1 and an formulation of Imazethapyr, and • a mixed composition of an emulsion of Compound A-1 and an formulation of Imazamox, were diluted with water containing 1% Agri-dex (produced by Helena). […]
as §4

On to `COCc1cnc(C2=NC(C)(C(C)C)C(=O)N2)c(C(=O)O)c1` (stereo not drawn) [Imazamox, 2-(4-isopropyl-4-methyl-5-oxo-2-imidazolin-2-yl)-5-(methoxymethyl)nicotinic acid], for which the “Herbicide Effect yellow nutsedge” value in data set [1] (10 g/ha active ingredient) is recorded as 1; in data set [1] (40 g/ha active ingredient) it was 2. The Phytotoxicity soybean result in the data set with soybean (10 g/ha active ingredient) and in the data set with soybean (40 g/ha active ingredient) was “no” each time.
`CCc1cnc(C2=NC(C)(C(C)C)C(=O)N2)c(C(=O)O)c1` (stereo not drawn) [Imazethapyr, 5-ethyl-2-(4-isopropyl-4-methyl-5-oxo-2-imidazolin-2-yl)nicotinic acid]: the “Herbicide Effect yellow nutsedge” value was 1 in data set [1] (20 g/ha active ingredient) and 2 in data set [1] (80 g/ha active ingredient).

The values above are taken from patent US7482307B2, “Herbicide composition” (Sumitomo Chemical Company, Limited, priority 2001, dated 2009).
